Laboratory results as given in patent publication US20240343740A1, “MACROCYCLIC GLUCAGON-LIKE PEPTIDE 1 RECEPTOR AGONISTS” (Eli Lilly and Company, priority 2021, published 2024).

Columns and labels:
human GLP-1R [1] = target: T1, human GLP-1R (Homo sapiens, UniProt P43220); test: Human GLP-1 Receptor HEK293 cell cAMP assay, 104 fmol/mg GLP-1R expression density; format: cell-based; design: expressed in transfected cells; host or cells: HEK293 clonal cell line; details: HEK293 cell line with 104 fmol/mg expression density of GLP-1R; for EC50: geometric mean, read-out: EC50 nM (SEM, n), intracellular cAMP response, relative EC50; for Emax: percent of maximal response to GLP-1(7-36)NH2, arithmetic mean, read-out: Emax % (SEM, n), intracellular cAMP response
Protocol: (§1) Human GLP-1 Receptor HEK293 Cell cAMP Assay
(§2) GLP-1 Receptor functional activity is determined using cAMP formation in an HEK293 clonal cell line expressing human GLP-1R (NCBI accession number NP_002053) at an expression density of 581±94 (n=6) and 104±12 (n=5) fmol/mg protein (determined using [^125I]GLP-1(7-36)NH2 homologous competition binding analysis). The hGLP-1R receptor expressing cells are treated with compound (20 point concentration-response curve in DMSO, 2.75-fold Labcyte Echo direct dilution, 384 well plate Corning Cat #3570) in DMEM (Gibco Cat #31053) supplemented with 1× GlutaMAX™ (Gibco Cat #35050), 0.1% bovine casein (Sigma C4765-10ML), 250 μM IBMX (3-Isobutyl-1-methylxanthine, Acros Cat #228420010) and 20 mM HEPES (Gibco Cat #15630) in a 20 μL assay volume (final DMSO concentration is 0.5%). After a 30 min incubation at 37° C., the resulting increase in intracellular cAMP is quantitatively determined using the CisBio cAMP Dynamic 2 HTRF Assay Kit (62AM4PEJ). Briefly, cAMP levels within the cell are detected by adding the cAMP-d2 conjugate in cell lysis buffer (10 μL) followed by the antibody anti-cAMP-Eu^3+-Cryptate, also in cell lysis buffer (10 μL). The resulting competitive assay is incubated for at least 60 min at RT, then detected using a PerkinElmer Envision® instrument with excitation at 320 nm and emission at 665 nm and 620 nm. Envision units (emission at 665 nm/620 nm*10,000) are inversely proportional to the amount of cAMP present and are converted to nM cAMP per well using a cAMP standard curve. The amount of cAMP generated (nM) in each well is converted to a percent of the maximal response observed with human GLP-1(7-36)NH2. A relative EC50 value and percent top (Emax) are derived by non-linear regression analysis using the percent maximal response vs. the concentration of compound added, fitted to a four-parameter logistic equation.

human GLP-1R [2] = target: T1, human GLP-1R; test: Human GLP-1 Receptor HEK293 cell cAMP assay, 581 fmol/mg GLP-1R expression density; format: cell-based; design: expressed in transfected cells; host or cells: HEK293 clonal cell line; details: HEK293 cell line with 581 fmol/mg expression density of GLP-1R; for EC50: geometric mean, read-out: EC50 nM (SEM, n), intracellular cAMP response, relative EC50; for Emax: percent of maximal response to GLP-1(7-36)NH2, arithmetic mean, read-out: Emax % (SEM, n), intracellular cAMP response
Protocol: as §1, §2

T1 sequence (P43220 24-463): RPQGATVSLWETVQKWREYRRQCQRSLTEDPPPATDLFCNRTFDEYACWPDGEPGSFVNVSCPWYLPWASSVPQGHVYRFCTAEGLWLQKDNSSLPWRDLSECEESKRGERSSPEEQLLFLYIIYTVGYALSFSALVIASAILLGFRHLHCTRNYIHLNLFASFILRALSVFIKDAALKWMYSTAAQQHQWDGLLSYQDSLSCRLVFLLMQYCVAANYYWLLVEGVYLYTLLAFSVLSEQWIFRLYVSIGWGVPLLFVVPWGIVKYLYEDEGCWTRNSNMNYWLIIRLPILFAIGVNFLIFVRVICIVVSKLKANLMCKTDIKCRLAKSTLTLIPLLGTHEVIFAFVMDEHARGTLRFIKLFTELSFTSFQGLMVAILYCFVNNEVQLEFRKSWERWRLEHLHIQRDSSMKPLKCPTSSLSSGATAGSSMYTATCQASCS

Structure (SMILES) | EC50 (human GLP-1R [1]) | Emax (human GLP-1R [1]) | EC50 (human GLP-1R [2]) | Emax (human GLP-1R [2])
N#Cc1ccc2c(c1)CCOc1cc(c(F)cc1Cc1nc3ccc(C(=O)O)cc3n1C[C@@H]1CCO1)-c1cccc(n1)OC2 [Example 20, (S)-2-((5^4-Cyano-1^6-fluoro-3,8-dioxa-2(2,6)-pyridina-1(1,3),5(1,2)-dibenzenacyclooctaphane-1^4-yl)methyl)-1-(oxetan-2-ylmethyl)-1H-benzo[d]imidazole-6-carboxylic acid] | 226 nM | 89.9% | 58 nM | 105%
N#Cc1ccc2cc1CCOCc1cc(ccc1Cc1nc3ccc(C(=O)O)cc3n1C[C@@H]1CCO1)-c1cccc(n1)OC2 [Example 21, (S)-2-((5^4-Cyano-3,8-dioxa-2(2,6)-pyridina-1,5(1,3)-dibenzenacyclononaphane-1^4-yl)methyl)-1-(oxetan-2-ylmethyl)-1H-benzo[d]imidazole-6-carboxylic acid] | 133 nM | 95.6% | 35.1 nM | 111%
COc1cc(C(=O)O)cc2c1nc(Cc1cc(C)c3cc1OCCCc1cc(F)ccc1COc1cccc-3n1)n2C[C@@H]1CCO1 [Example 22, (S)-4-Methoxy-2-((1^6-methyl-5^4-(fluoro)-3,9-dioxa-2(2,6)-pyridina-1(1,3),5(1,2)-dibenzenacyclononaphane-1^4-yl)methyl)-1-(oxetan-2-ylmethyl)-1H-benzo[d]imidazole-6-carboxylic acid] | 10.6 nM | 80.9% | 2.86 nM | 112%
COc1cc(C(=O)O)cc2c1nc(Cc1ccc3cc1OCCCc1cc(C#N)ccc1COc1cccc-3n1)n2Cc1ncco1 [Example 23, 2-((5^4-Cyano-3,9-dioxa-2(2,6)-pyridina-1(1,3),5(1,2)-dibenzenacyclononaphane-1^4-yl)methyl)-4-methoxy-1-(oxazol-2-ylmethyl)-1H-benzo[d]imidazole-6-carboxylic acid] | 344 nM | 83.7% | 69.3 nM | 106%
COCCOc1cc(C(=O)O)cc2c1nc(Cc1ccc3cc1OCCCc1cc(C#N)ccc1COc1cccc-3n1)n2C[C@@H]1CCO1 [Example 24, (S)-2-((5^4-Cyano-3,9-dioxa-2(2,6)-pyridina-1(1,3),5(1,2)-dibenzenacyclononaphane-1^4-yl)methyl)-4-(2-methoxyethoxy)-1-(oxetan-2-ylmethyl)-1H-benzo[d]imidazole-6-carboxylic acid] | 6.6 nM | 89.6% | 2.34 nM | 116%

The next lines start with the values.

EC50 (human GLP-1R [1]) | Emax (human GLP-1R [1]) | EC50 (human GLP-1R [2]) | Emax (human GLP-1R [2]) | Structure (SMILES)
703 nM | 62.1% | 317 nM | 98.3% | O=C(O)c1ccc2nc(Cc3ccc4cc3OCCCc3cc(CO)ccc3COc3cccc-4n3)n(C[C@@H]3CCO3)c2c1 [Example 25, (S)-2-((5^4-(Hydroxymethyl)-3,9-dioxa-2(2,6)-pyridina-1(1,3),5(1,2)-dibenzenacyclononaphane-1^4-yl)methyl)-1-(oxetan-2-ylmethyl)-1H-benzo[d]imidazole-6-carboxylic acid]
5.64 nM | 91.3% | 1.66 nM | 116% | COc1cc(C(=O)O)cc2c1nc(Cc1cc(C)c3cc1OCCCc1nc(C(F)(F)F)ccc1COc1cccc-3n1)n2C[C@@H]1CCO1 [Example 26, (S)-4-Methoxy-2-((1^6-methyl-5^6-(trifluoromethyl)-3,9-dioxa-2(2,6),5(3,2)-dipyridina-1(1,3)-benzenacyclononaphane-1^4-yl)methyl)-1-(oxetan-2-ylmethyl)-1H-benzo[d]imidazole-6-carboxylic acid; 1,3,4,6,7,8-hexahydro-2H-pyrimido[1,2-a]pyrimidine]
165 nM | 82.5% | 50.7 nM | 107% | COc1cc(C(=O)O)cc2c1nc(Cc1cc(C)c3cc1OCCCc1cnccc1COc1cccc-3n1)n2C[C@@H]1CCO1 [Example 27, (S)-4-Methoxy-2-((1^6-methyl-3,9-dioxa-2(2,6),5(4,3)-dipyridina-1(1,3)-benzenacyclononaphane-1^4-yl)methyl)-1-(oxetan-2-ylmethyl)-1H-benzo[d]imidazole-6-carboxylic acid]
